The target in assay [1] is Tyrosine-protein kinase HCK (Homo sapiens) (UniProt P08631). Put plainly: Residual activity of HCK at 1 uM by microplate scintillation counting.
Assay [2] shares this target. Put plainly: Residual activity of HCK at 0.1 uM by microplate scintillation counting.
Assay [3] has as its target Maternal embryonic leucine zipper kinase (Homo sapiens) (UniProt Q14680). Put plainly: Residual activity of MELK at 0.1 uM by microplate scintillation counting.
The target of assay [4] is Ribosomal protein S6 kinase alpha-5 (Homo sapiens) (UniProt O75582). The experiment in a line: Residual activity of RPS6KA5 at 1 uM by microplate scintillation counting.
Ribosomal protein S6 kinase alpha-5 (Homo sapiens), sequence (O75582 whole entry, looked up, canonical isoform): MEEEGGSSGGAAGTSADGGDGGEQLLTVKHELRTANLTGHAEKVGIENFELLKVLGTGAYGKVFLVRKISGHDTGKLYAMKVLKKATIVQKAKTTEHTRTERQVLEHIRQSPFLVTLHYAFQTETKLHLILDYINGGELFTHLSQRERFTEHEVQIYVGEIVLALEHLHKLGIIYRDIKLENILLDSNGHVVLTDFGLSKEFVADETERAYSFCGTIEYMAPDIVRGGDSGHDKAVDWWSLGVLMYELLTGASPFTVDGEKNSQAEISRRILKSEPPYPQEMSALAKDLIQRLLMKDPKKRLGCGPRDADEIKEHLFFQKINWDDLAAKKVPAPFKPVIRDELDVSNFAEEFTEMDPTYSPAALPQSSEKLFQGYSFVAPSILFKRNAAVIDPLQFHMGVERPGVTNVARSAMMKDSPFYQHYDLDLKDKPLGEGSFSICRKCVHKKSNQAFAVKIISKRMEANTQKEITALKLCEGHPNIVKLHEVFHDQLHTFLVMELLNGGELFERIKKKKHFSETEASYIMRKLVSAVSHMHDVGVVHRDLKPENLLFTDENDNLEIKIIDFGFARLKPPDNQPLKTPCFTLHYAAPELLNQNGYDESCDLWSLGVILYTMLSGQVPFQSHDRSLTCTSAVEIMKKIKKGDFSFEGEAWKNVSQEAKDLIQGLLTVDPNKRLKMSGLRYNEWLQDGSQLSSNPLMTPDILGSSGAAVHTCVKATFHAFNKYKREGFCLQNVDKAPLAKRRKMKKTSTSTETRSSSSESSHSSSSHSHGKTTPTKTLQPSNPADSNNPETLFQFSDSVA
Assay [5] concerns the target Casein kinase I isoform gamma-3 (Homo sapiens) (UniProt Q9Y6M4). The experiment in a line: Residual activity of CK1gamma3 at 10 uM by microplate scintillation counting.
Assay [6] deals with Interferon-induced, double-stranded RNA-activated protein kinase (Homo sapiens) (UniProt P19525). The experiment in a line: Residual activity of EIF2AK2 at 10 uM by microplate scintillation counting.
Interferon-induced, double-stranded RNA-activated protein kinase (Homo sapiens), sequence (P19525 whole entry): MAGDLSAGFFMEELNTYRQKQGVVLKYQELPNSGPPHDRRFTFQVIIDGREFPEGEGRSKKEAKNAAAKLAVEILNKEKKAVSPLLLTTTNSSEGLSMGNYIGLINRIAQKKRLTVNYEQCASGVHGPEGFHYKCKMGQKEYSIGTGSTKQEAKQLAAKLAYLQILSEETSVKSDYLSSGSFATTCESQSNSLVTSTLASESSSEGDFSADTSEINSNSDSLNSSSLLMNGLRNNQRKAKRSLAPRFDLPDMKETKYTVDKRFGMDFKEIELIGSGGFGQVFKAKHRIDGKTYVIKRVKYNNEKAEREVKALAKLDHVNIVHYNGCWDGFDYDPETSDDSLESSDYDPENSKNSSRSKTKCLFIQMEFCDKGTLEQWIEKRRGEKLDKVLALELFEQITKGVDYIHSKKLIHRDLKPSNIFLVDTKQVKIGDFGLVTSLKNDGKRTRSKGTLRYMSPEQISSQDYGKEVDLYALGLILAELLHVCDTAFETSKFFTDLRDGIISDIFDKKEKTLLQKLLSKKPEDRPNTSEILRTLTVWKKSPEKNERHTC
In assay [7] the target is T1, G protein-coupled receptor kinase 3 (Homo sapiens) (UniProt P35626).
T1 sequence (whole entry): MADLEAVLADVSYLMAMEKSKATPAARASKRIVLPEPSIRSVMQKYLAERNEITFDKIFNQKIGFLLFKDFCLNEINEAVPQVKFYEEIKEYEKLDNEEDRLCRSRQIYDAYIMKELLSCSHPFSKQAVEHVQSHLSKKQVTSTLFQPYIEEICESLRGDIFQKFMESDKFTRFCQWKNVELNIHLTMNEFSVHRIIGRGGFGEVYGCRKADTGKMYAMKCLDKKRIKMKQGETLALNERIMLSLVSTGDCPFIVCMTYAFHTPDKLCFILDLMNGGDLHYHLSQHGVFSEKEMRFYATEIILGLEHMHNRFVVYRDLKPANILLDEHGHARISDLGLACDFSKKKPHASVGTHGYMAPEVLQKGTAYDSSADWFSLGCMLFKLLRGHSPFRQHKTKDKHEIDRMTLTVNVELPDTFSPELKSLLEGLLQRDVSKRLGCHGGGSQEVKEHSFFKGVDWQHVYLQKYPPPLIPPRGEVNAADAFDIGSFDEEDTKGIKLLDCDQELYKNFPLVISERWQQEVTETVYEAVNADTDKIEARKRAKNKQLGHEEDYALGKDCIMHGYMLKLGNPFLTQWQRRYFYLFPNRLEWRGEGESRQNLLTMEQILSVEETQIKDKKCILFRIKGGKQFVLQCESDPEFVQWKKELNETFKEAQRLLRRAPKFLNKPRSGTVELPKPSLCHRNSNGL
Put plainly: Residual activity of GRK3 at 10 uM by microplate scintillation counting.

The target in assay [8] is T2, Calcium/calmodulin-dependent protein kinase type IV (Homo sapiens) (UniProt Q16566).
T2 sequence (whole entry): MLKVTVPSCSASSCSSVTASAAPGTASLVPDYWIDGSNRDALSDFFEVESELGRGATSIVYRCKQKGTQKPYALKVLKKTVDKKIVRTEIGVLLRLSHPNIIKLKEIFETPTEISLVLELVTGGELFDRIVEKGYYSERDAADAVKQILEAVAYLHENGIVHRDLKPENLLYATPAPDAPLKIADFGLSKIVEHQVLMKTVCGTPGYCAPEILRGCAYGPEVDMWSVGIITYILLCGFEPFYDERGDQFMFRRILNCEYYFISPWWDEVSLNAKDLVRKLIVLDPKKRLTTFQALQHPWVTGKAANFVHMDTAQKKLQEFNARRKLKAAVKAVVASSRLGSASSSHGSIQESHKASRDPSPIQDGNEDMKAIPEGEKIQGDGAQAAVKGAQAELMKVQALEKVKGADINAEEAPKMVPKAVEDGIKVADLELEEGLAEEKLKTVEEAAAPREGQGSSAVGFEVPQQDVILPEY
Put plainly: Residual activity of CAMK4 at 10 uM by microplate scintillation counting.

Assay [9] has as its target Cyclin-dependent kinase 7/ cyclin H (Homo sapiens) (UniProt P51946+P50613). The experiment in a line: Residual activity of CDK7/CyclinH/MAT1 at 10 uM by microplate scintillation counting. Type of assay: protein-complex assay.
For assay [10], the target named is MAP/microtubule affinity-regulating kinase 3 (Homo sapiens) (UniProt P27448). The experiment in a line: Residual activity of MARK3 at 10 uM by microplate scintillation counting.
Assay [11] addresses Platelet-derived growth factor receptor beta (Homo sapiens, UniProt P09619). The experiment in a line: Residual activity of PDGFRbeta at 10 uM by microplate scintillation counting.
Assay [12] concerns the target CDK4/Cyclin D3 (Homo sapiens) (UniProt P11802+P30281). Put plainly: Residual activity of CDK4/Cyclin D3 at 1 uM by microplate scintillation counting. The class given is protein-complex assay.
For assay [13], the target named is T3, Serine/threonine-protein kinase BRSK1 (Homo sapiens) (UniProt Q8TDC3).
T3 sequence (whole entry): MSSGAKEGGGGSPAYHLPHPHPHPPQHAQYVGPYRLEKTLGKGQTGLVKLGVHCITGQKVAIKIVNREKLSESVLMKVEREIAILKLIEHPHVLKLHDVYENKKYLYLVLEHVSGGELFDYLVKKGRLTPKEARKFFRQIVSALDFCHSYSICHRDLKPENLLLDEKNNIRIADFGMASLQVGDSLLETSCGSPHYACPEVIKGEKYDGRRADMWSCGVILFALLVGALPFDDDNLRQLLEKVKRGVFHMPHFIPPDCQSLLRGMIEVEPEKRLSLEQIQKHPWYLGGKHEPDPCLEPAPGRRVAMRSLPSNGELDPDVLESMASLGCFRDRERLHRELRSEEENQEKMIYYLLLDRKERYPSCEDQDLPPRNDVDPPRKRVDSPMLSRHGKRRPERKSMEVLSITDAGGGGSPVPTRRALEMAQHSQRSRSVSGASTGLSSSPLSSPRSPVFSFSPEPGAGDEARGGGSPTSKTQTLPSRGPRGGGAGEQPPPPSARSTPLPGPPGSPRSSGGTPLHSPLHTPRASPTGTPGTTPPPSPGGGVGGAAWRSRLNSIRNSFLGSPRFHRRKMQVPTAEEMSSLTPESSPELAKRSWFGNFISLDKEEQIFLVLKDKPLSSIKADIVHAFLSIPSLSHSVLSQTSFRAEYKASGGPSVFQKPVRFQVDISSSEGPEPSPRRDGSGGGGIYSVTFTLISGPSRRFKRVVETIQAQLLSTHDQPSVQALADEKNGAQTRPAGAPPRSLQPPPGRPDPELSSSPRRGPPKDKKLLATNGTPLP
Put plainly: Residual activity of BRSK1 at 0.1 uM by microplate scintillation counting.

Assay [14] has as its target Serine/threonine-protein kinase MRCK beta (Homo sapiens) (UniProt Q9Y5S2). The experiment in a line: Residual activity of CDC42BPB at 0.1 uM by microplate scintillation counting.
In assay [15] the target is Serine/threonine-protein kinase N1 (Homo sapiens) (UniProt Q16512). The experiment in a line: Residual activity of PRK1 at 10 uM by microplate scintillation counting.
Serine/threonine-protein kinase N1 (Homo sapiens), sequence (Q16512 2-942 limits assumed): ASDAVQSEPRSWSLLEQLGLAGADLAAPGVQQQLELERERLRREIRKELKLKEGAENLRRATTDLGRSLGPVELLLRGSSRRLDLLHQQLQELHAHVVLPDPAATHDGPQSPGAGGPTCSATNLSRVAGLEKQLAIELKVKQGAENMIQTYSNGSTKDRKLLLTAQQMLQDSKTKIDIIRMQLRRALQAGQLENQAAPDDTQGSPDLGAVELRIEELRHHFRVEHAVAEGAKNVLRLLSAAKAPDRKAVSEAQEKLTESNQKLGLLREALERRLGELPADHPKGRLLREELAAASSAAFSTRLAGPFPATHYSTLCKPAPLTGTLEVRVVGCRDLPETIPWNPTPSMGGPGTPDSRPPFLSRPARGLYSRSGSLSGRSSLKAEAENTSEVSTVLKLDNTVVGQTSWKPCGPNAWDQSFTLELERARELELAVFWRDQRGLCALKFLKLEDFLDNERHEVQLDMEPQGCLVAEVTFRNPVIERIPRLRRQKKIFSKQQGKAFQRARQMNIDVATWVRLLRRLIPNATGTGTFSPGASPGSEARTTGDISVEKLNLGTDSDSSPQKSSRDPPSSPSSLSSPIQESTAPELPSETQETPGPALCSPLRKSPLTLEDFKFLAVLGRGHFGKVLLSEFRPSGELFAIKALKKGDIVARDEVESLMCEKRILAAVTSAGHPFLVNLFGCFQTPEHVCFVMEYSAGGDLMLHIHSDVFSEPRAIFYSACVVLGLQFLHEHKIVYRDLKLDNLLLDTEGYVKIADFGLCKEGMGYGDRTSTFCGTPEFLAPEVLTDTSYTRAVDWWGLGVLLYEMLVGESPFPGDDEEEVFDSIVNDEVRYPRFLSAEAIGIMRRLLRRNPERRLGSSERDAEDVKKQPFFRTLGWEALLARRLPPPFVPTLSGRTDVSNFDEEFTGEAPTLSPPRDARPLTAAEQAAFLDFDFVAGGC

Among the data in ChEMBL document CHEMBL1152560, “Substituted 2-arylbenzothiazoles as kinase inhibitors: hit-to-lead optimization” (Bioorg Med Chem, 2009) are residual activity values, retold here.

Tyrosine-protein kinase HCK (Homo sapiens), sequence (P08631 2-526 limits assumed): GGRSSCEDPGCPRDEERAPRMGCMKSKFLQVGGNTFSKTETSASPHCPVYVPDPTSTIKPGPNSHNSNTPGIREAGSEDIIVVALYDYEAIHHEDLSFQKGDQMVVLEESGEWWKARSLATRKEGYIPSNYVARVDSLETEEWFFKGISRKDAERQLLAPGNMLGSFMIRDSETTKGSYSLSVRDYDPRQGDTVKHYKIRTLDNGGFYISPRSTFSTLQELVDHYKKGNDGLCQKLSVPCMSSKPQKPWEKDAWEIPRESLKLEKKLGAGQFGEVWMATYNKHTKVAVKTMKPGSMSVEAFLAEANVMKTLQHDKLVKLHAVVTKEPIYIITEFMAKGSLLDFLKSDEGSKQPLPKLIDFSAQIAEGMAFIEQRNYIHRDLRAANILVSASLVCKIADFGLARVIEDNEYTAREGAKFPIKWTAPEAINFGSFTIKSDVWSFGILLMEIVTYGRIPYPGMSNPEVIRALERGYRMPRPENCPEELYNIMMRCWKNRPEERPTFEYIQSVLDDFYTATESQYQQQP
Serine/threonine-protein kinase MRCK beta (Homo sapiens), sequence (Q9Y5S2 whole entry): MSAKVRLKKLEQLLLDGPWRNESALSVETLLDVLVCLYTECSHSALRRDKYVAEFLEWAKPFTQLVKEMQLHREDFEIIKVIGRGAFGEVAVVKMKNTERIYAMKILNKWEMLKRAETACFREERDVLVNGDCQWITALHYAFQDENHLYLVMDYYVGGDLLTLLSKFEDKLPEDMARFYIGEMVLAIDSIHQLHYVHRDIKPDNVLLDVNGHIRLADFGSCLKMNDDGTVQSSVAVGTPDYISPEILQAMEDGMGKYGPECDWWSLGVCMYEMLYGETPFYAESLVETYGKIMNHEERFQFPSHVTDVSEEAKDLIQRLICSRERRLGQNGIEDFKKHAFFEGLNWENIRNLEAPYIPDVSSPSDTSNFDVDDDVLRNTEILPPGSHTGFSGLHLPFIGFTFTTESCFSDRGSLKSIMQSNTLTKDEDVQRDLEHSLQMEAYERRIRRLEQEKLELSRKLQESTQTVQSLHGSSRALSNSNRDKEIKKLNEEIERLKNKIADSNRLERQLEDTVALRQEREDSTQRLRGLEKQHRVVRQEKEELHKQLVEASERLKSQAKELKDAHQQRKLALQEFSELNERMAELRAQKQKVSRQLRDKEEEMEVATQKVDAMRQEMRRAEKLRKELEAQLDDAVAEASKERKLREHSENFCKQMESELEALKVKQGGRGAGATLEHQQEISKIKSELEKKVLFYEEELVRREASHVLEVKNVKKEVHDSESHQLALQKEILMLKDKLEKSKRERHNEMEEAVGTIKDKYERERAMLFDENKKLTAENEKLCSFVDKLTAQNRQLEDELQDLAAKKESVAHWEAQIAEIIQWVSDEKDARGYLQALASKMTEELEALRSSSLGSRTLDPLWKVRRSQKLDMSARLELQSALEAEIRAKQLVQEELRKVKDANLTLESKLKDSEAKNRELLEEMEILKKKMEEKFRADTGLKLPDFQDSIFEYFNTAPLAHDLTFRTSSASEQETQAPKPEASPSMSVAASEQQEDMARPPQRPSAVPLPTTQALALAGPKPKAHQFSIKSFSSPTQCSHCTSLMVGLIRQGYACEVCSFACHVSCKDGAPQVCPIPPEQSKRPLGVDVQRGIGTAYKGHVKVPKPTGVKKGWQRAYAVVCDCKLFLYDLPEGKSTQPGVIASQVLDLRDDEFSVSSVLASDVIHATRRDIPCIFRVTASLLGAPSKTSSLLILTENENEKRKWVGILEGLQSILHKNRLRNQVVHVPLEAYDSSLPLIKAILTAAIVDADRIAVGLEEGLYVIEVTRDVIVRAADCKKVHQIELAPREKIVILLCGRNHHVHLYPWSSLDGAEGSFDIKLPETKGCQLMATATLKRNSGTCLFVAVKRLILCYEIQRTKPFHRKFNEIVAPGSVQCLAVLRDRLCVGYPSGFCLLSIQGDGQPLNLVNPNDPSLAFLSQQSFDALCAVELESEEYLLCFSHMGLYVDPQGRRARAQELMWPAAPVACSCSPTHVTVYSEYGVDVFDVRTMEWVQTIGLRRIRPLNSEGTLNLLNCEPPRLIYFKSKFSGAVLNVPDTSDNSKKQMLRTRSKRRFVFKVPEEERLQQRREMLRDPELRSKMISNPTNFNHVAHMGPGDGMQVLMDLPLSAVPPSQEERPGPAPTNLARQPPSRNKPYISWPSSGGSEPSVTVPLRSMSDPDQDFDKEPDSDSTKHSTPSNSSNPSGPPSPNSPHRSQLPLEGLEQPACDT
Casein kinase I isoform gamma-3 (Homo sapiens), sequence (Q9Y6M4 whole entry, looked up, canonical isoform): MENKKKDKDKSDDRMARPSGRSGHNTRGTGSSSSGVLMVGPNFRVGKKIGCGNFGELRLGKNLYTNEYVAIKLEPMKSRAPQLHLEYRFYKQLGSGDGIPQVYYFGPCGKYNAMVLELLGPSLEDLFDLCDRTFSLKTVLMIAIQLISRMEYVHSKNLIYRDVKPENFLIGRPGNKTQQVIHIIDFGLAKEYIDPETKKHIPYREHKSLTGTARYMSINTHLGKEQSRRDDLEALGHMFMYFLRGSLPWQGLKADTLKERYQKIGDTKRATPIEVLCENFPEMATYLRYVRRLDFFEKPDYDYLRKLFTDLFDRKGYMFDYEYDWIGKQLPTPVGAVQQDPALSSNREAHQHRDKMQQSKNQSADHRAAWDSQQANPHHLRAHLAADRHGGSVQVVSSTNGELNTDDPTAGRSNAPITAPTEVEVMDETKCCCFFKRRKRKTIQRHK

For `COc1cc2c(Oc3ccc(-c4nc5ccccc5s4)cc3)ncnc2cc1OCCCN1CCN(C)CC1`, the residual activity in assay [1] was 93%; in assay [2] it was 96%; in [3], 111%; in assay [4], 81%; in [5], 107%; in assay [6] it was 21%. The residual activity in [7] stood at 135%; in [8] it was 227%; in [9], 130%; in [10], 107%; in [11], 21%; in assay [12] it was 95%. The residual activity was determined as 95% in assay [13], 120% in assay [14] and 83% in [15].
Regarding `COc1cc2c(Oc3ccc(-c4nc5ccccc5s4)cc3)ncnc2cc1OCCCN1CCCC1`, the residual activity in assay [1] was determined as 116%; in assay [2] it was 97%; in assay [3] it was 34%; in assay [4] it was 87%; in assay [5] it was 101%; in assay [6] it was 27%. The residual activity amounted to 110% in assay [7]; 88% in [8]; 116% in [9]; 108% in assay [10]; 43% in assay [11]; 105% in assay [12]. In addition, the residual activity is 94% in assay [13], 87% in [14] and 68% in assay [15].
Regarding `COc1cc2c(Oc3ccc(-c4nc5ccccc5s4)cc3F)ncnc2cc1OCCCN1CCN(C)CC1`, the residual activity turned out to be 99% in assay [1]; 115% in assay [2]; 60% in [3]; 71% in assay [4]; 105% in [5]; 28% in assay [6]. In addition, the residual activity is 125% in assay [7]; 211% in [8]; 138% in assay [9]; 104% in assay [10]; 33% in assay [11]; 86% in assay [12]. Moreover, the residual activity is 85% in [13], 83% in assay [14] and 91% in [15].
